Test results taken from patent US6740641B2 (priority 2001, dated 2004).
Read-outs that look alike come from different tables or passages of the source.

Assays:
Assay in all cases: biochemical
[1] = target: T1, recombinant kappa opiod receptor expressed in HEK 293 cells (Homo sapiens, UniProt P41145); assay type: binding
T1 construct: purchased Receptor Biology Inc; host or cells: HEK 293

[2] = target: T2, recombinant delta opiod receptor expressed in CHO-K1 cells (Homo sapiens, UniProt P41143); settings: 0.2 nM [3H]-naltrindole, Table 1; read-out: Delta-Receptor Binding Affinity Ki
T2 construct: purchased Receptor Biology Inc., Beltsville, Md; host or cells: CHO-K1
T2 sequence (P41143 whole entry): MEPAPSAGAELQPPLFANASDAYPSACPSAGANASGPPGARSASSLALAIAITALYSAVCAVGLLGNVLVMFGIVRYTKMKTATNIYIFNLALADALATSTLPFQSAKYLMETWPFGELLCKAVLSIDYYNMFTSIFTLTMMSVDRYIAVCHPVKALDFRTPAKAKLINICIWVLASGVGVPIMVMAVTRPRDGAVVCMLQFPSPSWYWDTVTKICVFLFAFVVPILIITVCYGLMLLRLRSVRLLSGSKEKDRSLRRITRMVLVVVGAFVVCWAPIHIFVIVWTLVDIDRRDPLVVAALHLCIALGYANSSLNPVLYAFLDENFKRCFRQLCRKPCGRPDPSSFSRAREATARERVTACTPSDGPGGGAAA

[3] = target: T3, recombinant mu-opioid receptor expressed in CHO-K1 cells (Homo sapiens, UniProt P35372); assay type: binding; settings: for selectivity for mu opioid receptors relative to delta and kappa opioid receptors: from Ki data of Table 4
T3 construct: purchased Receptor Biology Inc; host or cells: CHO-K1
T3 sequence (P35372 whole entry): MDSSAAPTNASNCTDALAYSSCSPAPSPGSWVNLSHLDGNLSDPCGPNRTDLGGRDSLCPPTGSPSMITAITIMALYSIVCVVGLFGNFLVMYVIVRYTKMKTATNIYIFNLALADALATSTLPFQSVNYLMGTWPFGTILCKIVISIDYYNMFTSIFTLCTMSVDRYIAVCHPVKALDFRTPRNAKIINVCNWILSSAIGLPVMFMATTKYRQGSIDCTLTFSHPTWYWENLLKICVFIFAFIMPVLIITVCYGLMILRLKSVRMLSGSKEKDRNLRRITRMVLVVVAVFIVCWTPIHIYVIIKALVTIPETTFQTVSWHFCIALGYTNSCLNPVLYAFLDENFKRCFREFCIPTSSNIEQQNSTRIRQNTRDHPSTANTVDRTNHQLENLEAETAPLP

[4] = 0.15 nM [3H]-bremazocine, Table 2, read-out: Kappa-Receptor Binding Affinity Ki
[5] = 0.2 nM [3H]-diprenorphine, Table 3, read-out: Mu-Receptor Binding Affinity Ki

T1 sequence (P41145 whole entry): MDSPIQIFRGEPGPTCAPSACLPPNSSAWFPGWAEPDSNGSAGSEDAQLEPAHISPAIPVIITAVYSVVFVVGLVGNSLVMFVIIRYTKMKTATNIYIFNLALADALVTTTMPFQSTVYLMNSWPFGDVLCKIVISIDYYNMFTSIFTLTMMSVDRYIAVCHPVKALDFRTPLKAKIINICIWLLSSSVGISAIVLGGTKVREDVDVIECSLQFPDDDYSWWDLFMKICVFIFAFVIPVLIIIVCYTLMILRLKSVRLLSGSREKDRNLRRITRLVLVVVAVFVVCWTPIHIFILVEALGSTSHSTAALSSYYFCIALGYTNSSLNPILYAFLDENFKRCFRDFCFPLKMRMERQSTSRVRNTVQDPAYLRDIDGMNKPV

Compound	Ki [1, 4] [nM]	Ki [2] [nM]	mu selectivity compared with morphine sulfate [3]	Ki [3, 5] [nM]	selectivity for mu opioid receptors relative to delta and kappa opioid receptors [3]	Ki [3] [nM]	Ki [1] [nM]
CN1CC[C@]23c4c5ccc(OC6O[C@H](CO)[C@@H](O)[C@H](O)[C@H]6O)c4O[C@H]2C(=O)CC[C@H]3[C@H]1C5 (stereo partly drawn) [Hydromorphone-3-glucoside, 3-O-Glucosylhydromorphone]	2400	4500	higher than that of morphine sulfate	51	high selectivity for mu opioid receptors	–	–
CN1CC[C@]23c4c5ccc(O)c4O[C@H]2[C@@H](O)CC[C@H]3[C@H]1C5 [Dihydromorphine, reference compound]	–	–	–	–	–	0.39	–
Oc1ccc2c3c1O[C@H]1c4oc5ccccc5c4C[C@@]4(O)[C@@H](C2)N(CC2CC2)CC[C@]314 [Naltriben, reference compound]	–	–	–	–	–	–	2.4
CN1CCC23c4c5ccc(O)c4O[C@H]2[C@H](OC2OC(CO)C(O)C(O)C2O)CCC3C1C5 (stereo partly drawn) [Dihydroisomorphine-6-glucoside, 6-O-Glucosyldihydroisomorphine]	440	868	higher than that of morphine sulfate	4.7	high selectivity for mu opioid receptors	–	–
